In patent publication US11957661B2, “JAK1 pathway inhibitors for the treatment of vitiligo” (Incyte Corporation, priority 2020, dated 2024):

How the values were obtained:
Format in all cases: cell-based
Normal Human Melanocytes [1] = assay: Melanocyte proliferation assay with 20% CD8+ T cell conditioned media; settings: for suppressed melanocyte proliferation response: 1000 nM co-cultured with CD3/CD28-activated human CD8+ T cells, 20% conditioned media; for spontaneous proliferation compared to the natural melanocyte proliferation rate: added to the inflammatory culture media, time-dependent
Procedure: The assay investigates an in vitro system using CD8+ T Cells and melanocytes. The assay tests whether Compound 1 modulates the inflammatory response and how such modulation affects melanocyte biology.
(§1) Methods: CD8+ T cell Conditioned Media Step: Normal Human CD8+ T Cells from peripheral blood were purchased ([…] Technologies). They were cultured for 48 hours at 37 C and 5% CO2 under activating and unactivating conditions inside the Incucyte Live-Cell Analysis System (Essen Bioscience). Activated T cells were cultured in a flat bottom 96 well plate (Costar) that was first coated with 10 ug/ml anti-CD3 (BD Biosciences) for 2 hours at room temperature and then washed one time with PBS before cells were added. They were grown in Melanocyte Growth Medium (NHM-GM, MatTek) containing 1 ug/ml anti-CD28 (BD Biosciences). Unactivated T cells were treated the same way except that they were cultured in a separate plate without anti-CD3 and anti-CD28. Each T cell plate was treated at seeding with Compound 1 (1000, 100, or 10 nM) or media alone. Each treatment was done in triplicate. After 48 hours, all the samples (T cells and media) were transferred to new V-bottom plates and centrifuged at 1300 RPMs for 10 minutes. Supernatants were collected from the T cell pellets carefully to not disturb the pellet. The supernatants (CD8+ T cell Conditioned Media) used fresh to treat the melanocyte. The remaining amounts were stored at −80 C and then thawed for protein analysis by Luminex technology (custom Procarta 45-plex, Thermo Fisher Scientific). The treated CD8+ T cell pellets were lysed using the Quantigene sample processing kit reagents following the kit instructions. Lysates were stored at −80 C and then thawed for RNA analysis by Luminex technology using two custom Quantigene 80-Plexes—150 targeted genes total (Thermo Fisher Scientific).
(§2) Melanocyte Proliferation Step: Normal Human Melanocytes isolated from a donor's neonatal foreskin epidermis were purchased (MatTek). They were thawed and seeded following manufacturer's instruction in NHM-GM media in flat bottom 96 well plates (Costar) for 18 hours at 37 C and 5% CO2. They were approximately 10% confluent when treated with 20% CD8+ T cell Conditioned Media (25 ul Conditioned media added to 100 ul of NHM-GM already in the wells). They were cultured for 48 hours at 37 C and 5% CO2 inside the Incucyte Live-Cell Analysis System (Essen Bioscience) with 5 images per well taken every 3 hrs. After 48 hours, all the supernatants were transferred from the melanocyte plates to new V-bottom plates and centrifuged at 1300 RPMs for 10 minutes. Supernatants were collected and were stored at −80 C and then thawed for protein analysis by Luminex technology (custom Procarta 45-plex, Thermo Fisher Scientific). The treated melanocytes were lysed using the Quantigene sample processing kit reagents following the kit instructions. Lysates were stored at −80 C and then thawed for RNA analysis by Luminex technology using two custom Quantigene 80-Plexes for a total of 150 targeted genes (Thermo Fisher Scientific). Incucyte images were analyzed using the Incucyte software and the percentage of melanocyte confluence was determined for each treatment.
The assay investigates an in vitro system using CD8+ T Cells and melanocytes. The assay tests whether ruxolitinib modulates the inflammatory response and how such modulation affects melanocyte biology. […]

[2] = test system: CD3/CD28-activated human CD8+ T cells; assay: Protein analysis (Luminex) of CD8+ T cell conditioned media; settings: for LIF, T cells: T cell data
Procedure: as §1
as §1, with “ruxolitinib” for “Compound 1”

Normal Human Melanocytes [3] = assay: Protein analysis (Luminex) of melanocyte media after 20% CD8+ T cell conditioned media; settings: for IL-8, protein melanocyte media: melanocytes under stress conditions
Procedure: as §2

[4] = co-cultured with CD3/CD28-activated human CD8+ T cells
[5] = melanocytes treated with activated T cell conditioned media

| SMILES | suppressed melanocyte proliferation response (Normal Human Melanocytes [1]) | spontaneous proliferation compared to the natural melanocyte proliferation rate (Normal Human Melanocytes [1]) | melanocyte proliferation (% confluence) (Normal Human Melanocytes [1]; following transfer of 20% unactivated T cell media) | LIF, T cells [2] | additional mediators not obligated to use JAK1 signaling (growth factors and chemokine), protein T cell media [2, 4] | inflammatory cytokines that are JAK-STAT dependent, protein T cell media [2, 4] | increase of IL-8 (Normal Human Melanocytes [3]; melanocyte culture) | reduction of HGF levels (Normal Human Melanocytes [3]; melanocyte culture supernatants after activated T cell conditioned media) | inflammatory cytokines that are JAK-STAT dependent, protein melanocyte media (Normal Human Melanocytes [3]; [5]) | IL-8, protein melanocyte media (Normal Human Melanocytes [3]) | IL-2, protein T cell media [2, 4] | IL-4, protein T cell media [2, 4] | IL-5, protein T cell media [2, 4] | IL-6, protein T cell media [2, 4] | IL-8 concentration, CD8+ T cells ([2]; treatment of CD8+ T cells) | IL-10, protein melanocyte media (Normal Human Melanocytes [3]; [5]) | IL-13, protein melanocyte media (Normal Human Melanocytes [3]; [5]) |
| --- | --- | --- | --- | --- | --- | --- | --- | --- | --- | --- | --- | --- | --- | --- | --- | --- | --- |
| Cc1n[nH]c(C)c1-c1cnn(C2(CC#N)CN(c3cc(F)c(C(=O)N[C@@H](C)C(F)(F)F)cc3F)C2)c1 [Compound 1, 4-[3-(cyanomethyl)-3-(3′,5′-dimethyl-1H,1′H-4,4′-bipyrazol-1-yl)azetidin-1-yl]-2,5-difluoro-N-[(1S)-2,2,2-trifluoro-1-methylethyl]benzamide] | partially reversed | significant reduction | does not directly alter | on-target inhibition | reduced | inhibits | ~450% | ~67% | reduces | increased |  |  |  |  |  |  |  |
| N#CC[C@H](C1CCCC1)n1cc(-c2ncnc3[nH]ccc23)cn1 [ruxolitinib] | completely reverse | significant reduction |  | on-target inhibition | reduced | inhibits |  |  | reduces | reduced | upregulated | no effect | no effect | no effect | slightly reduced | no effect | no effect |
